The source of these data is patent US7569596B2, “Imidazolamino compounds” (National Health Research Institutes, priority 2002, dated 2009).

The test concerns Murine leukemic P388 cells. Briefly: In vivo anticancer activity, murine leukemic P388 model. Also noted: species or system DBA/2J mice. As to conditions: mice intravenously inoculated with P388 cells; given P.O. or I.V. at different doses. How it is done: Evaluation of in vivo Anticancer Activity
The in vivo anticancer activities of the compounds were evaluated by the following murine leukemic P388 model. Inbred female DBA/2J mice of 4-5 week-old were purchased from the National Laboratory Animals Breeding and Research Center, Taipei, Taiwan, ROC. Murine leukemic P388 cells were purchased from the Japanese Collection of Research Bioresources, Japan. P388 cells were cultured and propagated in RPM11640 medium supplemented with 50 μM 2-mercaptoethanol and 10% fetal bovine serum. Mice at the age of 6 weeks were grouped as the treatment, negative control and positive control groups at 7 to 8 mice per group. All mice were intravenously inoculated with the P388 cells at one million per mouse one day before the treatments initiated. Compound 6 was dissolved in dimethyl sulfoxide (DMSO) and then diluted in 0.5% carboxymethyl cellulose or a Cremophor-based vehicle with the final concentration of DMSO less than 0.5%. Different treatment groups were orally (P.O.) or intravenously (I.V.) given, respectively, with Compound 6 of different doses for a pharmacological dose-response relationship. The mice of the negative control group were treated with the dosing vehicle only. […] The cancer cell-inoculated animals were monitored twice daily. Survival fractions of the mice were recorded. […]

For `Nc1nc(-c2cccs2)cn1-c1nc(-c2ccccc2)cs1` [Compound 6, 1-(4-phenyl-1,3-thiazol-2-yl)-4-(2-thienyl)-1H-2-imidazolamine], the “survival rate of the inoculated mice” value is on record as “increased the survival rate”.
